Data on 17 molecules can be found in patent US11530218B2, “Spiro compounds as inhibitors of KRAS” (Incyte Corporation, priority 2020, dated 2022).

In one experiment the target is KRAS G12C (Homo sapiens, UniProt P01116, G12C). Put plainly: KRAS G12C GDP-GTP exchange assay (bodipy-GDP/GppNHp, SOS1). It counts as biochemical. The conditions noted are these: bodipy-loaded KRAS G12C 2.5 nM, 2 hours pre-incubation with inhibitor, 2 hours exchange; read-out: G12C_exchange (KRAS_G12C exchange assay IC50). The protocol: (§1) The inhibitor potency of the exemplified compounds was determined in a fluorescence based guanine nucleotide exchange assay, which measures the exchange of bodipy-GDP (fluorescently labeled GDP) for GppNHp (Non-hydrolyzable GTP analog) to generate the active state of KRAS in the presence of SOS1 (guanine nucleotide exchange factor). Inhibitors were serially diluted in DMSO and a volume of 0.1 μL was transferred to the wells of a black low volume 384-well plate. 5 μL/well volume of bodipy-loaded KRAS G12C diluted to 5 nM in assay buffer (25 mM Hepes pH 7.5, 50 mM NaCl, 10 mM MgCl2 and 0.01% Brij-35) was added to the plate and pre-incubated with inhibitor for 2 hours at ambient temperature. Appropriate controls (enzyme with no inhibitor or with a G12C inhibitor (AMG-510)) were included on the plate. The exchange was initiated by the addition of a 5 μL/well volume containing 1 mM GppNHp and 300 nM SOS1 in assay buffer. The 10 μL/well reaction concentration of the bodipy-loaded KRAS G12C, GppNHp, and SOS1 were 2.5 nM, 500 uM, and 150 nM, respectively. The reaction plates were incubated at ambient temperature for 2 hours, a time estimated for complete GDP-GTP exchange in the absence of inhibitor. For the KRAS G12D and G12V mutants, similar guanine nucleotide exchange assays were used with 2.5 nM as final concentration for the bodipy loaded KRAS proteins and with 4 hours and 3 hours incubation after adding GppNHp-SOS1 mixture for G12D and G12V respectively. A cyclic peptide described to selectively bind G12D mutant (Sakamoto et al., BBRC 484.3 (2017), 605-611) or internal compounds with confirmed binding were used as positive controls in the assay plates. Fluorescence intensities were measured on a PheraStar plate reader instrument (BMG Labtech) with excitation at 485 nm and emission at 520 nm.
Chain of KRAS G12C (P01116 1-188 isoform P01116-2 G12C): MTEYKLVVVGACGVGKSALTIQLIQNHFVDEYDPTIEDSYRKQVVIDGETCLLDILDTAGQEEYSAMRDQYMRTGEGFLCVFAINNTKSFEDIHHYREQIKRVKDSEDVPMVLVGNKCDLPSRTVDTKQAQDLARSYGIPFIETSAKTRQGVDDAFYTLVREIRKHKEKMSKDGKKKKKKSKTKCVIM
(§2) Either GraphPad prism or XLfit was used to analyze the data. The IC50 values were derived by fitting the data to a four parameter logistic equation producing a sigmoidal dose-response curve with a variable Hill coefficient. Prism equation: Y=Bottom+(Top−Bottom)/(1+10^((Log IC50−X)*Hill slope)); XLfit equation: Y=(A+((B−A)/(1+((X/C)^D)))) where X is the logarithm of inhibitor concentration and Y is the response.

The next experiment deals with KRAS G12D (Homo sapiens, UniProt P01116, G12D). The experiment in a line: KRAS G12D GDP-GTP exchange assay (bodipy-GDP/GppNHp, SOS1). It counts as biochemical. The conditions noted are these: bodipy loaded KRAS G12D 2.5 nM, 4 hours incubation after GppNHp-SOS1; read-out: G12D_exchange (KRAS_G12D exchange assay IC50). The protocol:
as §1, §2

In experiment [1] the test system is KRAS G12D (A427, HPAF-II cells). Put plainly: KRAS_G12D cellular pERK HTRF assay. As to conditions: cells incubated with compound 2 hours; read-out: G12D_pERK (KRAS_G12D pERK assay IC50). The format is cell-based. The protocol:
(§3) MIA PaCa-2 (KRAS G12C; ATCC® CRL-1420), A427 (KRAS G12D; ATCC® HTB53), HPAF-II (KRAS G12D; ATCC® CRL-1997) and NCI-H838 (KRAS WT; ATCC® CRL-5844) cells are purchased from ATCC and maintained in RPMI 1640 media supplemented with 10% FBS (Gibco/Life Technologies). The cells are plated at 5000 cells per well (8 uL) into Greiner 384-well low volume, flat-bottom, tissue culture treated white plates and incubated overnight at 37° C., 5% CO2. The next morning, test compound stock solutions are diluted in media at 3x the final concentration, and 4 uL are added to the cells. The plate is mixed by gentle rotation for 30 seconds (250 rpm) at room temperature. The cells are incubated with the KRAS G12C and G12D compounds for 4 hours or 2 hours respectively at 37° C., 5% CO2.
(§4) 4 uL of 4× lysis buffer with blocking reagent (1:25) (Cisbio) are added to each well and plates are rotated gently (300 rpm) for 30 minutes at room temperature. 4 uL per well of Cisbio anti Phospho-ERK 1/2 d2 is mixed with anti Phospho-ERK 1/2 Cryptate (1:1) are added to each well, mixed by rotation and incubated overnight in the dark at room temperature. Plates are read on the Pherastar plate reader at 665 nm and 620 nm wavelengths. IC50 determination is performed by fitting the curve of inhibitor percent inhibition versus the log of the inhibitor concentration using the GraphPad Prism 7 software.
In general terms: Time-resolved FRET reads energy transfer from a long-lived donor to a nearby acceptor.

For experiment [2], the system named is KRAS G12C (MIA PaCa-2 cells). The experiment in a line: KRAS_G12C cellular pERK HTRF assay. It counts as cell-based, human. The arrangement: G12C_pERK (KRAS_G12C pERK assay IC50): scale not given here. The conditions noted are these: cells incubated with compound 4 hours; for IC50: Homo sapiens, MIA PaCa-2, read-out: G12C_pERK (KRAS_G12C pERK assay IC50). The protocol:
as §3, §4

Chain of KRAS G12D (P01116 1-188 isoform P01116-2 G12D): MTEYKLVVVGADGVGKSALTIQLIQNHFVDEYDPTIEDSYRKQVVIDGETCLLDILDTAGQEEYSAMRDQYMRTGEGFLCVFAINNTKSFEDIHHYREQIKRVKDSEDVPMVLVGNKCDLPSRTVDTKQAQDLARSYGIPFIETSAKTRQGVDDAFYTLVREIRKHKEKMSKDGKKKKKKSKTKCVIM

Usually IC50 stands for the concentration needed to halve the response being measured. Consider `C=CC(=O)N1CCCC2(C1)C(=O)Nc1c(OC[C@@H]3CCCN3C)nc3c(F)c(-c4cc(O)cc5ccccc45)c(Cl)cc3c12` (mixture of isomers) [Example 15, 1-Acryloyl-8′-chloro-6′-fluoro-7′-(3-hydroxynaphthalen-1-yl)-4′-(((S)-1-methylpyrrolidin-2-yl)methoxy)spiro[piperidine-3,1′-pyrrolo[2,3-c]quinolin]-2′(3′H)-one], for which the IC50 on KRAS G12C fell in the range of 1 to 5 µM.
`C=CC(=O)N1CCC2(C1)Nc1c(cnc3c(F)c(-c4c(C)ccc5[nH]ncc45)c(Cl)cc13)NC2=O` (racemic) [Example 9, 1′-Acryloyl-9-chloro-7-fluoro-8-(5-methyl-1H-indazol-4-yl)-1,4-dihydro-3H-spiro[pyrazino[2,3-c]quinoline-2,3′-pyrrolidin]-3-one]: the concentration for half-maximal inhibition (IC50) on KRAS G12C lay in the range of 1 to 5 µM.
In the case of `CC(C)CCN1C(=O)C2(CCCNC2)c2c1c(OC[C@@H]1CCCN1C)nc1c(F)c(-c3cc(O)cc4ccccc34)c(CCCC#N)cc21` (single isomer, unassigned) [Example 35a], the values for the IC50 (on KRAS G12D; in experiment [1]) were ≤ 0.1 µM and 5 to 50 µM, respectively.
Turning to `C=CC(=O)N1CCC2(CC1)Nc1c(cnc3c(F)c(-c4c(O)cccc4F)c(Cl)cc13)NC2=O` [Example 1, 1-Acryloyl-9′-chloro-7′-fluoro-8′-(2-fluoro-6-hydroxyphenyl)-1′,4′-dihydro-3′H-spiro[piperidine-4,2′-pyrazino[2,3-c]quinolin]-3′-one], in experiment [2], the half-inhibitory concentration (IC50) was 1 to 5 µM.
On to `C=CC(=O)N1CCC2(CC1)Nc1c(cnc3c(F)c(-c4cc(O)ccc4Cl)c(Cl)cc13)NC2=O` [Example 2, 1-Acryloyl-9′-chloro-8′-(2-chloro-5-hydroxyphenyl)-7′-fluoro-1′,4′-dihydro-3′H-spiro[piperidine-4,2′-pyrazino[2,3-c]quinolin]-3′-one], for which the IC50 in experiment [2] lay within 1 to 5 µM.
Turning to `C=CC(=O)N1CCC2(CC1)Nc1c(cnc3c(F)c(-c4cccc5[nH]nc(C)c45)c(Cl)cc13)NC2=O` [Example 3, 1-Acryloyl-9′-chloro-7′-fluoro-8′-(3-methyl-1H-indazol-4-yl)-1′,4′-dihydro-3′H-spiro[piperidine-4,2′-pyrazino[2,3-c]quinolin]-3′-one], the 50% inhibitory concentration (IC50) at KRAS G12C was 1 to 5 µM.
On to `C=CC(=O)N1CCC2(CC1)Nc1c(cnc3c(F)c(-c4c(F)cccc4OC)c(Cl)cc13)NC2=O` [Example 5, 1-Acryloyl-9′-chloro-7′-fluoro-8′-(2-fluoro-6-methoxyphenyl)-1′,4′-dihydro-3′H-spiro[piperidine-4,2′-pyrazino[2,3-c]quinolin]-3′-one], for which the IC50 on KRAS G12C was 1 to 5 µM.
As to `C=CC(=O)N1CC2(C1)Nc1c(cnc3c(F)c(-c4c(O)cccc4F)c(Cl)cc13)NC2=O` [Example 6, 1-Acryloyl-9′-chloro-7′-fluoro-8′-(2-fluoro-6-hydroxyphenyl)-1′,4′-dihydro-3′H-spiro[azetidine-3,2′-pyrazino[2,3-c]quinolin]-3′-one], the IC50 in experiment [2] is 1 to 5 µM.
Still for that read-out and setting: the value for `C=CC(=O)N1CC2(C1)Nc1c(cnc3c(F)c(-c4c(C)ccc5[nH]ncc45)c(Cl)cc13)NC2=O` [Example 7, 1-Acryloyl-9′-chloro-7′-fluoro-8′-(5-methyl-1H-indazol-4-yl)-1′,4′-dihydro-3′H-spiro[azetidine-3,2′-pyrazino[2,3-c]quinolin]-3′-one] was 1 to 5 µM; that for `C=CC(=O)N1CCC2(C1)Nc1c(cnc3c(F)c(-c4c(O)cccc4F)c(Cl)cc13)NC2=O` (stereo not drawn) [Example 8, 1′-Acryloyl-9-chloro-7-fluoro-8-(2-fluoro-6-hydroxyphenyl)-1,4-dihydro-3H-spiro[pyrazino[2,3-c]quinoline-2,3′-pyrrolidin]-3-one] was 1 to 5 µM.
For the molecule `C=CC(=O)N1CCC2(CC1)Nc1c(c(OC[C@@H]3CCCN3C)nc3c(F)c(-c4c(O)cccc4F)c(Cl)cc13)NC2=O` [Example 10, 1-Acryloyl-9′-chloro-7′-fluoro-8′-(2-fluoro-6-hydroxyphenyl)-5′-(((S)-1-methylpyrrolidin-2-yl)methoxy)-1′,4′-dihydro-3′H-spiro[piperidine-4,2′-pyrazino[2,3-c]quinolin]-3′-one], the IC50 at KRAS G12C is ≤ 0.1 µM; in experiment [2], 1 to 5 µM.
As to `C=CC(=O)N1CCC2(CC1)Nc1c(c(OC[C@@H]3CCCN3C)nc3c(F)c(-c4cc(O)cc5ccccc45)c(Cl)cc13)NC2=O` [Example 11, 1-Acryloyl-9′-chloro-7′-fluoro-8′-(3-hydroxynaphthalen-1-yl)-5′-(((S)-1-methylpyrrolidin-2-yl)methoxy)-1′,4′-dihydro-3′H-spiro[piperidine-4,2′-pyrazino[2,3-c]quinolin]-3′-one], at KRAS G12C, the IC50 was ≤ 0.1 µM. Further, the “G12C_pERK (KRAS_G12C pERK assay IC50)” value in experiment [2] was “††”.
Take `C=CC(=O)N1CCC2(CC1)Nc1c(c(OCCN3CCCCC3)nc3c(F)c(-c4c(O)cccc4F)c(Cl)cc13)NC2=O` [Example 12, 1-Acryloyl-9′-chloro-7′-fluoro-8′-(2-fluoro-6-hydroxyphenyl)-5′-(2-(piperidin-1-yl)ethoxy)-1′,4′-dihydro-3′H-spiro[piperidine-4,2′-pyrazino[2,3-c]quinolin]-3′-one]: the IC50 in experiment [2] lay within 1 to 5 µM.
Take `C=CC(=O)N1CCC2(CC1)C(=O)Nc1c(OC[C@@H]3CCCN3C)nc3c(F)c(-c4cc(O)cc5ccccc45)c(Cl)cc3c12` [Example 13, 1-Acryloyl-8′-chloro-6′-fluoro-7′-(3-hydroxynaphthalen-1-yl)-4′-(((S)-1-methylpyrrolidin-2-yl)methoxy)spiro[piperidine-4,1′-pyrrolo[2,3-c]quinolin]-2′(3′H)-one]: the IC50 on KRAS G12C was ≤ 0.1 µM. In addition, the “G12C_pERK (KRAS_G12C pERK assay IC50)” value in experiment [2] is reported as “††”.
As for `C=CC(=O)N1CCC2(C1)C(=O)Nc1c(OC[C@@H]3CCCN3C)nc3c(F)c(-c4cc(O)cc5ccccc45)c(Cl)cc3c12` (stereo partly drawn) [Example 14, 1-Acryloyl-8′-chloro-6′-fluoro-7′-(3-hydroxynaphthalen-1-yl)-4′-(((S)-1-methylpyrrolidin-2-yl)methoxy)spiro[pyrrolidine-3,1′-pyrrolo[2,3-c]quinolin]-2′(3′H)-one], the “G12C_pERK (KRAS_G12C pERK assay IC50)” value in experiment [2] is “††”.
On to `C=CC(=O)N1CCC2(CC1)CC(=O)c1cnc3c(F)c(-c4cc(O)cc5ccccc45)c(Cl)cc3c1O2` [Example 17, 1-Acryloyl-9′-chloro-7′-fluoro-8′-(3-hydroxynaphthalen-1-yl)spiro[piperidine-4,2′-pyrano[3,2-c]quinolin]-4′(3′H)-one], for which the IC50 on KRAS G12C was in the range of 1 to 5 µM.
For `C=CC(=O)N1CC2(C1)Nc1c(c(OC[C@@H]3CCCN3C)nc3c(F)c(-c4c(O)cccc4F)c(Cl)cc13)NC2=O` [Example 18, 1-Acryloyl-9′-chloro-7′-fluoro-8′-(2-fluoro-6-hydroxyphenyl)-5′-(((S)-1-methylpyrrolidin-2-yl)methoxy)-1′,4′-dihydro-3′H-spiro[azetidine-3,2′-pyrazino[2,3-c]quinolin]-3′-one], the IC50 in experiment [2] is 1 to 5 µM.
